Measurements published in PMC7576996, “Antiparasitic Behavior of Trifluoromethylated Pyrazole 2-Amino-1,3,4-thiadiazole Hybrids and Their Analogues: Synthesis and Structure-Activity Relationship” (Frontiers in Pharmacology, 2020).

Assays:
[1] = Cytotoxicity assay in J774A1 macrophages (MTT, 48 h); assay type: cell-based; conditions: mouse, pH 7.2, J774A1, 50% inhibition of growth
Method: (§1) All the novel trifluoromethylated pyrazoles derivatives 2a–f, 3a–f, and 4a–f were evaluated against the promastigote form of L. amazonensis and the epimastigote form of T. cruzi. The results are reported as the concentration causing a 50% inhibition in cell growth (IC50). Additionally, the toxicity of compounds was evaluated against two different cell lines: epithelial cell LLCMK2 and macrophages J774A1. The antiproliferative and cytotoxic activities are shown in Table 2 , as well as the calculated selectivity index (SI).
(§2) 2.4. Antiproliferative activity […]
(§3) Cytotoxicity activity was determined in LLCMK2 (epithelial cells of kidney of Macaca
(§4) mulatta) cells and J774A1 macrophages. LLCMK2 (epithelial cells of kidney of Macaca mulatta) cells
(§5) were cultured in Dulbecco’s modified Eagle’s medium (DMEM, pH 7.2) supplemented with 10% FBS
(§6) at 37 °C in a 5% CO2 atmosphere. J774A1 macrophages were cultured in RPMI-1640 (pH 7.2) medium
(§7) supplemented with 10% FBS at 37 °C in a 5% CO2 atmosphere.
(§8) 2.4.2. Dilution of compounds
(§9) Stock solutions of the compounds were prepared in DMSO and then diluted in the respective
(§10) medium. The groups (controls and treated) were tested with DMSO concentrations below 1%, with
(§11) 2.4.3. Antiproliferative assay […]
(§12) 2.4.4. Cytotoxicity assay
(§13) LLCMK2 cells (2.5 × 10^5 cells/mL) suspension was prepared in DMEM medium supplemented
(§14) with 10% FBS and added to 96-well plates. Then, the plates were incubated at 37 °C in a
(§15) CO2 atmosphere for 24h to obtain confluent cell growth. After incubation, cells were treated or not
(§16) with different concentrations of compounds diluted in DMEM for 72 h. Macrophage (5 × 10^5 cells/mL)
(§17) suspension was prepared in RPMI-1640 medium supplemented with 10% FBS and added to 96-well
(§18) plates. Then, the plates were incubated at 37 °C in a CO2 atmosphere for 24h to obtain confluent cell
(§19) growth. After incubation, cells were treated or not with different concentrations of compounds diluted
(§20) in RPMI-1640 for 48h. After treatment, medium was removed and cells were incubated with MTT (2
(§21) mg/mL) for 4h. Then, DMSO was added for solubilization of the formazan and analyzed with a reading
(§22) microplate reader (BIO-TEK PowerWave XS spectrophotometer) at 392 nm. The percentage of viable
(§23) cells was calculated in relation to the control to determine the cytotoxic concentration to 50% of the […]

[2] = tested on: epimastigote form of Trypanosoma cruzi; assay: Antiproliferative assay, epimastigote form of Trypanosoma cruzi (XTT, 96 h); assay type: cell-based; conditions: for SI T-M, selectivity index (Macrophages CC50/T. cruzi IC50): J774A1 vs epimastigotes; for SI T-E, selectivity index (Epithelial CC50/T. cruzi IC50): LLCMK2 vs epimastigotes; for IC50: Trypanosoma cruzi, epimastigote form, 96 h, mean ± standard deviation, read-out: T. cruzi IC50
Method: as §1
(§24) 2.4. Antiproliferative activity
(§25) Promastigotes forms of Leishmania amazonensis (strain WHOM/ BR/75/JOSEFA) were
(§26) cultured in Warren medium (brain heart infusion, hemin, and folic acid; pH 7.4) supplemented with
(§27) 10% fetal bovine serum (FBS) at 25 °C. Epimastigote forms of Trypanosoma cruzi (Y strain) were
(§28) cultured in LIT medium (liver infusion tryptose; hemim, and folic acid; pH 7.4) supplemented with
as §3, §4, §5, §6, §7, §8, §9, §10
(§29) 2.4.3. Antiproliferative assay
(§30) Promastigote forms (1 × 10^6 parasites/mL) were cultured in 96-well plates in the presence and
(§31) absence of different concentrations of compounds diluted in Warren medium supplemented with 10%
(§32) FBS and incubated for 72h. Epimastigote forms (1 × 10^6 parasites/mL) were cultured in 96 -well plates
(§33) in the presence and absence of different concentrations of compounds diluted in LIT medium
(§34) supplemented with 10% FBS and incubated for 96h. After treatment, the parasites were incu bated with
(§35) a solution of 2,3 -bis (2 -methoxy -4-nitro -5-sulfophenyl) -2H-tetrazolium -5-carboxanilide (XTT; 0.5
(§36) mg/mL) and phenazine methanesulfonate activator (PMS; 0.06 mg/mL) in PBS for 4h. Then, the
(§37) absorbance was read in a microplate reader (Bio Tek - Power Wave XS) at 450 nm. The percentage of
(§38) viable parasites was calculated in relation to the control in order to determine the concentration that
(§39) inhibits 50% of the protozoa (IC 50).
as §12, §13, §14, §15, §16, §17, §18, §19, §20, §21

[3] = tested on: promastigote form of Leishmania amazonensis; assay: Antiproliferative assay, promastigote form of Leishmania amazonensis (XTT, 72 h); assay type: cell-based; conditions: for SI L-M, selectivity index (Macrophages CC50/L. amazonensis IC50): J774A1 vs promastigotes; for SI L-E, selectivity index (Epithelial CC50/L. amazonensis IC50): LLCMK2 vs promastigotes; for IC50: Leishmania amazonensis, promastigote form, 72 h, mean ± standard deviation, read-out: L. amazonensis IC50
Method: as §1, §24, §25, §26, §27, §28, §3, §4, §5, §6, §7, §8, §9, §10, §29, §30, §31, §32, §33, §34, §35, §36, §37, §38, §39, §12, §13, §14, §15, §16, §17, §18, §19, §20, §21

[4] = Cytotoxicity assay in LLCMK2 epithelial cells (MTT, 72 h); assay type: cell-based; conditions: Macaca mulatta, LLCMK2 kidney epithelial cells, pH 7.2, LLCMK2, 50% inhibition of growth
Method: as §1, §2, §3, §4, §5, §6, §7, §8, §9, §10, §11, §12, §13, §14, §15, §16, §17, §18, §19, §20, §21, §22, §23

Row | SMILES | CC50 at 48 h [1] [µM] | SI T-M, selectivity index (Macrophages CC50/T. cruzi IC50) [2] | SI T-E, selectivity index (Epithelial CC50/T. cruzi IC50) [2] | IC50 [2] [µM] | SI L-M, selectivity index (Macrophages CC50/L. amazonensis IC50) [3] | SI L-E, selectivity index (Epithelial CC50/L. amazonensis IC50) [3] | IC50 [3] [µM] | CC50 at 72 h [4] [µM] | melting point [°C]
1 | Nc1nnc(-c2c(C(F)(F)F)nn(-c3ccccc3)c2-c2ccc(F)cc2)s1 [4b, 4-[(2-amino)-1,3,4-thiadiazo-5-yl]-3-trifluoromethyl-5-(4-fluorophenyl)-1-phenyl-1H-pyrazole] | 249 ± 6.2 | 5.99 | 3.52 | 41.6 ± 5.3 | 6.17 | 3.63 | 40.4 ± 3.2 | 146 ± 5.4 | 243.3
2 | Nc1nnc(-c2c(C(F)(F)F)nn(-c3ccccc3)c2-c2ccc(Cl)cc2)s1 [4c, 4-[(2-amino)-1,3,4-thiadiazo-5-yl]-5-(4-chlorophenyl)-3-trifluoromethyl-1-phenyl-1H-pyrazole] | 385 ± 5.8 | 9.51 | 8.63 | 40.5 ± 3.1 | 10.67 | 9.68 | 36.1 ± 2.8 | 350 ± 6.1 | 224.9
3 | Nc1nnc(-c2c(C(F)(F)F)nn(-c3ccccc3)c2-c2ccc(Br)cc2)s1 [4d, 4-[(2-amino)-1,3,4-thiadiazo-5-yl]-5-(4-Bromophenyl)-3-trifluoromethyl-1-phenyl-1H-pyrazole] | 147 ± 3.2 | 5.51 | 4.50 | 26.7 ± 1.4 | 10.01 | 8.17 | 14.7 ± 0.9 | 120 ± 2.5 | 239.2
4 | COc1ccc(-c2c(-c3nnc(N)s3)c(C(F)(F)F)nn2-c2ccccc2)cc1 [4f, 4-[(2-amino)-1,3,4-thiadiazo-5-yl]-3-trifluoromethyl-5-(4-methoxyphenyl)-1-phenyl-1H-pyrazole] | 156 ± 4.1 | 6.86 | 5.87 | 22.8 ± 1.2 | 9.14 | 7.83 | 17.1 ± 1.6 | 134 ± 5.1 | 239.1
5 | O=Cc1c(C(F)(F)F)nn(-c2ccccc2)c1-c1ccc([N+](=O)[O-])cc1 [compound 5, 3-trifluoromethyl-4-formyl-5-(4-nitrophenyl)-1-phenyl-1H-pyrazole] | 245 ± 2.7 | 3.03 | 5.22 | 80.8 ± 3.7 | 3.35 | 5.76 | 73.1 ± 2.8 | 422 ± 12.3 | 155.2 to 156.1
